# Data reported in patent US3984555A, “Therapeutic piperazinylalkyl-quinazolone-(4)-derivatives” (Byk Gulden Lomberg Chemische Fabrik Gesellschaft mit …, priority 1970, dated 1976).
# Read-outs that look alike come from different tables or passages of the source.
# Key:
# [1] = system: defence reaction after the thermal stimulation of the tail of the mouse; assay: Analgesic effect on the mouse: delay in defence reaction after thermal stimulation of the tail (Table IV); assay type: in vivo; settings: po, read-out: Delay in the defence reaction after the thermal stimulation of the tail of the mouse by 25% by mg/kg per os
# Excerpt: From Table IV below one can see the analgesic action, measured in terms of the delayed reaction during the thermal irritation of the mouse tail. The analgesically effective doses are also below those which reduce the motor behaviour, that is to say the normal movement processes (cf. Table III).
# Analgesic effect on the mouse
# Delay in the defence reaction after
# the thermal stimulation of the tail
# mouse [2] = assay: Inhibition of spontaneous motility, sedation, muscular relaxation, loss of grip on horizontal wire mesh in mice (Table III, b); assay type: in vivo; settings: po, dose at which an average of 50% of the mice display symptoms, read-out: b SD50 mg/kg oral
# mouse [3] = assay: Mice falling from a rotating bar (Table III, a); assay type: in vivo; settings: ip, read-out: a PD50 mg/kg i.p.
# Excerpt: The central damping actions of the piperazinyl quinazolones on the mouse can be seen from Table III.
# a = dose at which 50% of the mice fall from a rotating bar;
# [4] = system: blood pressure and cardiac frequency of the narcotised rat; assay: Influence on the blood pressure and the cardiac frequency of the narcotised rat (Table II); assay type: in vivo; settings: iv, i/v, read-out: Blood pressure lowered by 30% by mg/kg i/v
# Excerpt: Influence on the blood pressure and the cardiac frequency of the
# blood pressure and the cardiac frequency of the narcosed rate and also on […]
# [5] = system: duration of sleep of mice under hexobarbital; assay: Prolongation of hexobarbital sleep in mice (Table III, d); assay type: in vivo; settings: Mus musculus, ip; 15 mg/kg i.p.; 75 mg/kg hexobarbital; read-out: d % prolongation of sleep under hexebarbital by 15 mg/kg i.p.
# Procedure: d = percentage prolongation of the duration of sleep of mice which had received 75 mg/kg. of hexobarbital, reckoned on the duration of the sleep of control animals.
# [6] = LD50 (mean lethal dose) on the mouse (Table II); settings: in vivo
# Excerpt: (§1) on the despinalised rat. The mean lethal doses for the mouse are also
# [7] = system: running activity of mice pre-treated with α-amphetamine sulphate; assay: Inhibition of running activity of mice pre-treated with α-amphetamine sulphate (Table III, c); assay type: in vivo; settings: Mus musculus, ip, 3 h, 5 mg/kg α-amphetamine sulphate, 180 minutes; for inhibition in vivo at 12 mg/kg: 12mg/kg i/p, read-out: c % inhibition of motility in the treadwheel by 12mg/kg i/p; for inhibition in vivo at 25 mg/kg: 25mg/kg i/p, read-out: c % inhibition of motility in the treadwheel by 25mg/kg i/p
# [8] = system: hypertensive effect of 1-adrenalin; assay: 50% inhibition of hypertensive effect of 0.001 mg/kg i/v 1-adrenalin on the despinalised rat (Table II); assay type: in vivo; settings: iv, read-out: 50% inhibition of hypertensive effect after i/v dose of Adrenalin by mg/kg i/v
# Procedure: (§2) also on the hypertensive effect of 0.001 mg/kg i/v 1-adrenalin and
# (§3) blood pressure and the cardiac frequency of the narcosed rate and also on
# (§4) the hypertensive effect of 0.001 mg/kg i.v. 1-adrenaline and noradrenaline
# as §1
# carotid sinus reflex = assay: Inhibition of the carotid sinus reflex of the narcotised cat (Table I); assay type: in vivo; design: unit not given here; settings: for Inhibition of the carotid sinus reflex by 30% by: dose for 30% inhibition; for Inhibition of the carotid sinus reflex by 50% by: dose for 50% inhibition
# Excerpt: (§5) Influence on the blood pressure and cardiac frequency and also
# (§6) on the carotid sinus reflex of the narcotised cat
# (§7) Table I provides a general summary of the influence of different piperazinylquinazolones on the blood pressure, the cardiac frequency and the carotid sinus reflex of the narcotised cat.
# The inhibition of the carotid sinus reflex brought about by the piperazinyl quinazolones occurs at lower doses than the spontaneous lowering of the blood pressure in the cat.
# [9] = system: blood pressure and cardiac frequency of the narcotised cat; assay: Influence on the blood pressure and cardiac frequency of the narcotised cat (Table I); assay type: in vivo; design: unit not given here; settings: for Blood pressure lowered by 30% by: dose lowering blood pressure by 30%; for Blood pressure lowered by 50% by: dose lowering blood pressure by 50%
# Excerpt: as §5, §6, §7
# [10] = system: hypertensive effect of noradrenalin; assay: 50% inhibition of hypertensive effect of 0.001 mg/kg i/v noradrenalin on the despinalised rat (Table II); assay type: in vivo; settings: iv, read-out: 50% inhibition of hypertensive effect after i/v dose of Noradrenalin by mg/kg i/v
# Procedure: as §2, §3, §4, §1
# [11] = dose at which 50% of the mice fall from a rotating bar
Structure (SMILES),"ED25 ([1]; mouse, per os, 25% delay) [mg/kg]",ED50 (mouse [2]) [mg/kg],ED50 (mouse [3]) [mg/kg],ED30 [4] [mg/kg],change in vivo at 15 mg/kg [5] [%],LD50 [6] [mg/kg],inhibition in vivo at 12 mg/kg [7] [%],inhibition in vivo at 25 mg/kg [7] [%],ED50 [8] [mg/kg],Inhibition of the carotid sinus reflex by 30% by (carotid sinus reflex),Inhibition of the carotid sinus reflex by 50% by (carotid sinus reflex),Blood pressure lowered by 30% by [9],Blood pressure lowered by 50% by [9],ED50 [10] [mg/kg],ED50 (mouse [3]; [11]) [mg/kg],ED25 ([1]; Mus musculus) [mg/kg]
COc1cc2nc(CCN3CCN(c4ccc(C)cc4)CC3)[nH]c(=O)c2cc1OC [Example 4],3,70,23,0.65,125,100,51,65,–,–,–,–,–,–,–,–
"COc1cc2nc(CCN3CCN(c4ccccc4C)CC3)[nH]c(=O)c2cc1OC [Example 2, 2-(2-(1-(2-tolyl)-piperazinyl-4)ethyl)-6,7-dimethoxy-4(3H)-quinazolone]",1,140,35,0.65,121,70,11,10,0.042,< 0.01,0.02,0.029,> 1.6,1.4,–,–
"COc1cc2nc(CCCN3CCN(c4ccccc4OC)CC3)[nH]c(=O)c2cc1OC [Example 20, 2-(3-(1-(2-methoxy-phenyl)-piperazinyl-4)-n-propyl)-6,7-dimethoxy-4(3H)-quinazolone]",2,–,–,0.65,–,300,–,–,0.05,–,–,–,–,1.15,–,–
"COc1cc2nc(CCN3CCN(c4ccc(Cl)cc4)CC3)[nH]c(=O)c2cc1OC [Example 13, 2-(2-(1-(4-chlorophenyl)piperazinyl-4)ethyl)-6,7-dimethoxy-4(3H)-quinazolone]",2,200,–,–,44,–,15,15,–,–,–,–,–,–,46,–
"CNC1=Nc2ccc(Cl)cc2C(c2ccccc2)=[N+]([O-])C1 [Chlordiazepoxide, chlorodiazepoxide, reference compound]",–,8,38,–,324,–,15,19,–,–,–,–,–,–,–,–
"Cc1c(N(C)C)c(=O)n(-c2ccccc2)n1C [Aminophenazone, 4-dimethylamino-1-phenyl-2,3-dimethylpyrazolone-5, reference compound]",80,–,–,–,–,–,–,–,–,–,–,–,–,–,–,–
"COc1cc2nc(CCN3CCN(c4ccccc4Cl)CC3)[nH]c(=O)c2cc1OC [Example 11, 2-(2-(1-(2-chlorophenyl)piperazinyl-4)ethyl)-6,7-dimethoxy-4(2H)-quinazolone]",4,110,53,0.1,87,200,18,32,0.048,0.017,0.04,0.04,> 1.6,> 2.5,–,–
COc1cc2nc(CCN3CCN(c4ccccc4OC)CC3)n(C)c(=O)c2cc1OC [Example 8],–,–,–,0.12,–,350,–,–,0.035,–,–,–,–,–,–,–
"COc1cc2nc(CCN3CCN(c4cccc(Cl)c4)CC3)[nH]c(=O)c2cc1OC [Example 12, 2-(2-(1-(3-chlorophenyl)piperazinyl-4)ethyl)-6,7-dimethoxy-4(3H)-quinazolone]",1.5,500,–,–,78,–,0,19,–,–,–,–,–,–,34,–
"CCOc1ccccc1N1CCN(CCc2nc3cc(OC)c(OC)cc3c(=O)[nH]2)CC1 [Example 10, 2-(2-(1-(2-ethoxyphenyl)piperazinyl-4)ethyl)-6,7-dimethoxy-4(3H)-quinazolone]",2,–,–,0.4,–,300,–,–,0.0085,< 0.02,0.03,0.03,1.4,1.8,–,–
"COc1cc2nc(CCN3CCN(c4cccc(C)c4)CC3)[nH]c(=O)c2cc1OC [Example 3, 2-(2-(1-(3-tolyl)piperazinyl-4)ethyl)-6,7-dimethoxy-4(3H)-quinazolone]",2,60,24,0.32,69,200,13,41,0.35,–,–,–,–,5,–,–
"COc1cc2nc(CCN3CCN(c4ccccc4)CC3)[nH]c(=O)c2cc1OC [Example 1, 2-(2-(1-phenylpiperazinyl-4)ethyl)-6,7-dimethoxy-4(3H)-quinazolone]",1.5,1000,33,0.3,64,70,15,55,0.23,–,–,–,–,5,–,–
"CN1CC[C@]23c4c5ccc(O)c4O[C@H]2[C@@H](O)C=C[C@H]3[C@H]1C5.Cl [Morphine hydrochloride, morphine hydrochloride, reference compound]",–,–,–,–,–,–,–,–,–,–,–,–,–,–,–,2
"COc1ccc(N2CCN(CCc3nc4cc(OC)c(OC)cc4c(=O)[nH]3)CC2)cc1 [Example 17, 2-(2-(1-(4-methoxyphenyl)piperazinyl-4)ethyl)-6,7-dimethoxy-4(3H)-quinazolone]",2,–,–,–,–,–,–,–,–,–,–,4.5,> 1.5,–,–,–
"COc1cc2nc(CCN3CCN(c4cccc(C(F)(F)F)c4)CC3)[nH]c(=O)c2cc1OC [Example 5, 2-(2-(1-(3-trifluoromethylphenyl)piperazinyl-4)ethyl)-6,7-dimethoxy-4(3H)-quinazolone]",< 1,–,–,–,–,–,–,–,–,–,–,–,–,–,–,–
"COc1cc2nc(CCN3CCN(c4cccc(F)c4)CC3)[nH]c(=O)c2cc1OC [Example 15, 2-(2-(1-(3-fluorophenyl)piperazinyl-4)ethyl)-6,7-dimethoxy-4(3H)-quinazolone]",1,–,–,0.2,–,200,–,–,0.32,–,–,–,–,4.3,–,–
"COc1cc2nc(CN3CCN(c4ccccc4OC)CC3)[nH]c(=O)c2cc1OC [Example 18, 2-(1-(2-methoxyphenyl)piperazinyl-4)methyl-6,7-dimethoxy-4(3H)-quinazolone]",8,1000,–,–,> 15,–,–,12,–,–,–,–,–,–,–,–
"COc1cc2nc(CCN3CCN(c4ccc(F)cc4)CC3)[nH]c(=O)c2cc1OC [Example 16, 2-(2-(1(4-fluorophenyl)piperazinyl-4)ethyl)-6,7-dimethoxy-4(3H)-quinazolone]",2.5,65,14,0.6,103,300,10,49,0.57,–,–,–,–,4,–,–
"CCCC(C)(COC(N)=O)COC(N)=O [Meprobamate, reference compound]",–,300,95,–,18,–,11,28,–,–,–,–,–,–,–,–
"Cc1ccc(N(CC2=NCCN2)c2cccc(O)c2)cc1 [Phentolamine, phentolamine, reference compound]",–,–,–,0.63,–,200,–,–,0.047,0.1,0.5,0.1,0.7,0.18,–,–
